# According to doi:10.1101/2025.04.25.650653, “Hierarchical small molecule inhibition of MYST acetyltransferases” (bioRxiv, 2025):
# Several values for one entry are separate records, joined by “and”; a condition that tells them apart may be missing. Identical values can stand only once.
# What was measured:
# Format in all cases: cell-based
# H4K16Ac (KAT8) [1] = assay: Histone biomarker bottom-up LC-MS/MS, MCF-7; settings: for Ratio, H4_4_17 K16ac: Replicates 1-3
# H3K14Ac (KAT7) = assay: MYST KAT biomarker western blot, BT-549; settings: BT-549 cells, 24 h, near the GI50 dose
# From the text: (§1) Figure 6. […] (C) Dependence of breast cancer cell lines on non-MYST KATs (EP300, CREBBP), MYST KATs (KAT6A, KAT6B, KAT7, KAT8, KAT5), and a MYST KAT complex member (BRPF1) derived from on DepMap CRISPR screening data. BT-549 is highlighted in orange. Lower CERES score indicates a greater dependence of the cell line on the specified gene. […] Data is representiative of n=2 biological replicates.
# (§2) Analysis of DepMap-derived CRISPR screening data supports the notion that while breast cancer models vary widely in their requirement for EP300 and CREBBP, BT-549 appears to a fairly independent line. By comparison, targeting of KAT6 and KAT7 exerts modest effects on growth while KAT8 is highly inhibitory, consistent with its designation as an essential gene (Fig. 6C).[47], [48] […] KAT3 (H3K18Ac) and KAT5 (H2A.ZK4/K7Ac) were unaffected. […]
# (§3) distinguish between tightly grouped and diffuse clusters, compactness was quantified by calculating the average pairwise Euclidean distance between all points within each cluster. Clusters with lower average […]
# (§4) were visualized as two-dimensional scatter plots with points colored according to cluster assignments, […]
# (§5) Binding structures between FOXK2 (Uniprot: Q01167) and candidate interactors identified from our chemoproteomic data were predicted using AlphaPulldown4 v0.30.7,4 with multiple sequence alignments generated via ColabFold Search v1.5.5 on the NIH HPC Biowulf Cluster. Five models were generated per protein-protein pair without using templates or paired MSAs. Local Interaction Scores (LIS) and Local Interaction Area (LIA) were calculated according to previously described formulas.5 Structural visualizations were generated using ChimeraX v1.8.
# (§6) Composite scoring of candidate FOXK2-protein interactions
# (§7) To prioritize potential interactions, we developed a composite scoring system integrating multiple AlphaFold metrics (mpDockQ/pDockQ, LIS, and LIA), building upon established approaches for protein-protein interaction analysis.6 Each interaction was evaluated against minimum acceptable thresholds (1610 for LIA, 0.073 for LIS, and 0.175 for mpDockQ/pDockQ) and assigned a weighted constant (k): 1.0 for passing all three thresholds, 0.75 for two, 0.5 for one, and zero for none. Metrics were then min-max normalized, summed, and multiplied by the weighted constant to generate final composite scores for ranking candidate interactions. All data, code, and analysis scripts can be accessed as described in Data […]
# (§8) Prediction of interface contacts […]
# (§9) P61964), were further analyzed to identify interface residue-residue contacts using both AlphaFold2 and AlphaFold3. For AlphaFold2 analysis7 we calculated Euclidean distances between alpha carbon coordinates of residues using Sci-Py's Distance Matrix Module, filtering for interactions under 8Å. […]
# H3K23Ac (KAT6A/B) = assay: MYST KAT biomarker western blot, BT-549; settings: BT-549 cells, 24 h, near the GI50 dose
# From the text: as §1, §2, §3, §4, §5, §6, §7, §8, §9
# H2A.ZK4/K7Ac (KAT5) = assay: MYST KAT biomarker western blot, BT-549; settings: BT-549 cells, 24 h, 0.1-30 μM
# From the text: as §1, §2, §3, §4, §5, §6, §7, §8, §9
# H3K18Ac (KAT3) = assay: MYST KAT biomarker western blot, BT-549; settings: BT-549 cells, 24 h, 0.1-30 μM
# From the text: as §1, §2, §3, §4, §5, §6, §7, §8, §9
# H4K16Ac (KAT8) [2] = assay: MYST KAT biomarker western blot, BT-549; settings: BT-549 cells, 24 h, near the GI50 dose
compound,measurement,setting,value
COc1cccc(OC)c1S(=O)(=O)Nc1noc2cc(Cn3cccn3)cc(OC)c12 [PF-9363],IC50,"H4K16Ac (KAT8) [1]; Homo sapiens, MCF7, MCF-7 cells, 24 h",~10 µM
same,"Ratio, H4_4_17 K16ac","H4K16Ac (KAT8) [1]; KAT marker KAT8, PF-9363 0.1",0.3188 and 0.3244 and 0.3222
same,"Ratio, H4_4_17 K16ac","H4K16Ac (KAT8) [1]; KAT marker KAT8, PF-9363 1",0.2629 and 0.2802 and 0.2713
same,"Ratio, H4_4_17 K16ac","H4K16Ac (KAT8) [1]; KAT marker KAT8, PF-9363 10",0.1497 and 0 and 0.16
same,"Ratio, H4_4_17 K16ac","H4K16Ac (KAT8) [1]; KAT marker KAT8, PF-9363 30",0 (2×) and 0.08259
same,"Average ratio, H4_4_17 K16ac","H4K16Ac (KAT8) [1]; KAT marker KAT8, PF-9363 (0.1 mM)",0.3218
same,"Average ratio, H4_4_17 K16ac","H4K16Ac (KAT8) [1]; KAT marker KAT8, PF-9363 (30 mM)",0.0275
same,"Fold-change 0.1 v 30, H4_4_17 K16ac","H4K16Ac (KAT8) [1]; KAT marker KAT8, average ratio 0.1 v 30",11.69
same,inhibition of KAT7 (H3K14Ac),H3K14Ac (KAT7),near complete inhibiton
same,inhibition of KAT6A/B (H3K23Ac),H3K23Ac (KAT6A/B),near complete inhibiton
same,effect on KAT5 (H2A.ZK4/K7Ac),H2A.ZK4/K7Ac (KAT5),unaffected
same,effect on KAT3 (H3K18Ac),H3K18Ac (KAT3),unaffected
same,inhibition of KAT8 (H4K16Ac),H4K16Ac (KAT8) [2],near complete inhibiton
